Data taken from ChEMBL document CHEMBL5360595, “Ligand-Directed Photodegradation of Interacting Proteins: Oxidative HER2/HER3 Heterodimer Degradation with a Lapatinib-Derived Photosensitizer” (J Med Chem, 2023).
Active and inactive are the calls of the source. The calls are words filed in the database; no cut-off is given here.

Columns and labels:
MDA-MB-453 [1] = assay: Photocytotoxicity against human MDA-MB-453 cells cultured as 3D spheroids assessed as reduction in cell viability incubated for 72 hrs by CCK-8 assay; assay type: functional, cell-based; conditions: MDA-MB-453, 72 h
[2] = Photocytotoxicity against human Lapatinib-resistant MDA-MB-453 cells assessed as reduction in cell viability by CCK-8 assay; assay type: functional, cell-based
[3] = Photocytotoxicity against human Lapatinib-resistant MDA-MB-453 assessed as inhibition of cell growth under hypoxic condition incubated for 72 hrs in presence of LED light irradiation of 100 mW/cm2 at 400 to 700 nm by CCK-8 assay; assay type: functional, cell-based; conditions: Lapatinib-resistant MDA-MB-453, light or radiation study
MDA-MB-453 [4] = assay: Photocytotoxicity against human MDA-MB-453 cells cultured as 3D spheroids assessed as reduction in cell density at 0.5 to 10 uM incubated for 72 hrs by bright-field microscopic analysis; assay type: functional, cell-based; conditions: dose 0.5-10 µM
[5] = molecular target: T1, ErbB-2/ErbB-3 heterodimer (Homo sapiens, UniProt P04626+P21860); assay: Induction of HER2/HER3 degradation in human MDA-MB-453 cells assessed as HER2 degradation preincubated for 24 hrs followed by irradiation with 400 to 700 nm 100 mW/cm2 LED light for 10 min by Western blot analysis; assay type: cell-based
T1 sequence (P04626 whole entry): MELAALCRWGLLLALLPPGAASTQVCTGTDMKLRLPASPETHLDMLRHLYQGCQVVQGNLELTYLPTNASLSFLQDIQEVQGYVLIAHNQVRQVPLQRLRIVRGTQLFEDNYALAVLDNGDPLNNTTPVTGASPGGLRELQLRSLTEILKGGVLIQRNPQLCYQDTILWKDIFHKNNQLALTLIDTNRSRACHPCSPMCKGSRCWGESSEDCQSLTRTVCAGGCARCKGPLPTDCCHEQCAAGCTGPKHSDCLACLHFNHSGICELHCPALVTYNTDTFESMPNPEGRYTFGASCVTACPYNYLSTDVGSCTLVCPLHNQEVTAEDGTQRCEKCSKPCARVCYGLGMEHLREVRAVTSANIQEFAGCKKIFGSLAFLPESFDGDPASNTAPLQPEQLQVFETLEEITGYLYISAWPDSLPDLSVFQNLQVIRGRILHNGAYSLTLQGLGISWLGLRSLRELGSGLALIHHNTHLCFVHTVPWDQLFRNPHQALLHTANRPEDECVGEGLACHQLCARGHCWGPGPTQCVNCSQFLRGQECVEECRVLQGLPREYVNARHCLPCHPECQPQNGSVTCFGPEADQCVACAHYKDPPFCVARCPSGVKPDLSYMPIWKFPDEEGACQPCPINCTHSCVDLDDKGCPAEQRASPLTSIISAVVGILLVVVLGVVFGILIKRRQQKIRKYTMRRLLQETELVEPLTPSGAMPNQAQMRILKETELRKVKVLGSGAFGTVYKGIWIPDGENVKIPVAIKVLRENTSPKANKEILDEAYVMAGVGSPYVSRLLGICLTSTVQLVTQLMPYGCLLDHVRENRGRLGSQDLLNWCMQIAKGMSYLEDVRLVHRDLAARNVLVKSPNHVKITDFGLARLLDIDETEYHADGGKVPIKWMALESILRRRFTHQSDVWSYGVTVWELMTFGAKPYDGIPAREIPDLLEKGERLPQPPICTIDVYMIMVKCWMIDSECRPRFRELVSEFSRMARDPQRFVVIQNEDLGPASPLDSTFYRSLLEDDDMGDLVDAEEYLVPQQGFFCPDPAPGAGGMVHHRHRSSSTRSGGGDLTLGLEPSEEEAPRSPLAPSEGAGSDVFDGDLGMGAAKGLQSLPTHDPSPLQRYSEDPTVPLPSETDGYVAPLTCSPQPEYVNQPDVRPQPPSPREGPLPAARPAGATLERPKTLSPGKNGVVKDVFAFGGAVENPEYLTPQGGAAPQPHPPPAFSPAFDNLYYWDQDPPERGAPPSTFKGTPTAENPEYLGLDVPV
T1 sequence (P21860 whole entry): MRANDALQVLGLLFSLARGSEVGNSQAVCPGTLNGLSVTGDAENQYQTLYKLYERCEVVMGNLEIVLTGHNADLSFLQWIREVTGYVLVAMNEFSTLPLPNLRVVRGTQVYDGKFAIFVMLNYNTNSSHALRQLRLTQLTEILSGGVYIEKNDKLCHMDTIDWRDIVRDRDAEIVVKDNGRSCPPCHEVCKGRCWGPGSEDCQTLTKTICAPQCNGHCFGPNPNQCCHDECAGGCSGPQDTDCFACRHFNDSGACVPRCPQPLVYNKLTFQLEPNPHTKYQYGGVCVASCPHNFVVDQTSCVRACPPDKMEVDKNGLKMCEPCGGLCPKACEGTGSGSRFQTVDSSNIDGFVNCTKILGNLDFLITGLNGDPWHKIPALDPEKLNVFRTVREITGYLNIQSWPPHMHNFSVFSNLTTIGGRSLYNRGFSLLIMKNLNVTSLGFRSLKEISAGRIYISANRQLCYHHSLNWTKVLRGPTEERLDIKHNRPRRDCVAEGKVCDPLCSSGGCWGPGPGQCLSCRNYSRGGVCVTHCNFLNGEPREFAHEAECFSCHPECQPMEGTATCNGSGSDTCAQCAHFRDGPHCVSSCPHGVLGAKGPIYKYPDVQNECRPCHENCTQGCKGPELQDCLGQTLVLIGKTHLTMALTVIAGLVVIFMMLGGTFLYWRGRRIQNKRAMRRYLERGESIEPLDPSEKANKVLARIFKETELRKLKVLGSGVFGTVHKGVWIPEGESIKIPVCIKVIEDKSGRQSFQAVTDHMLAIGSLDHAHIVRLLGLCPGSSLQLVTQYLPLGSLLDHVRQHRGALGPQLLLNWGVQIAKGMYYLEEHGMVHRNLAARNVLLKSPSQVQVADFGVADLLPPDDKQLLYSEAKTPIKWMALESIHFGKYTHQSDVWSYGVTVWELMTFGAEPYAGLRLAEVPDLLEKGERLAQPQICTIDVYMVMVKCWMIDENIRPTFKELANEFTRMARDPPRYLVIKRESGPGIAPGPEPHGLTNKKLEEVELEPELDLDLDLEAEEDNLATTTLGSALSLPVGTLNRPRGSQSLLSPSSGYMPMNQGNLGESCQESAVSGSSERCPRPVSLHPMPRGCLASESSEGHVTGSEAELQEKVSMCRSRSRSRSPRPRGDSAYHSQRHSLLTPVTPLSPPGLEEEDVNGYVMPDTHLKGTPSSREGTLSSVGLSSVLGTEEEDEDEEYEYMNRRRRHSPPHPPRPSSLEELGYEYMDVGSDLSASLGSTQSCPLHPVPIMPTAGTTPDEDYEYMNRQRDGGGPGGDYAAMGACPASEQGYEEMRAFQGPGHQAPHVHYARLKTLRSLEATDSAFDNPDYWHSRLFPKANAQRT

[6] = molecular target: Receptor tyrosine-protein kinase erbB-2 (Homo sapiens, UniProt P04626); assay: Inhibition of HER2 (unknown origin) incubated for 40 mins by Kinase-Glo Max assay; assay type: cell-based, Sf9
Chain of Receptor tyrosine-protein kinase erbB-2 (P04626 whole entry): as the sequence (P04626 whole entry) above

MDA-MB-453 [7] = assay: Induction of apoptosis in human MDA-MB-453 cells assessed as decrease in Bcl-2 expression at 0.5 uM preincubated for 24 hrs followed by irradiation with 400 to 700 nm 100 mW/cm2 LED light for 10 min by Western blot analysis; assay type: functional, cell-based; conditions: time 1450.0 min
MDA-MB-453 [8] = assay: Induction of apoptosis in human MDA-MB-453 cells assessed as increase in cleaved caspase-3 expression at 0.5 uM preincubated for 24 hrs followed by irradiation with 400 to 700 nm 100 mW/cm2 LED light for 10 min by Western blot analysis; assay type: functional, cell-based; conditions: time 1450.0 min
MDA-MB-453 [9] = assay: Photocytotoxicity against human MDA-MB-453 cells cultured as 3D spheroids assessed as increase in dead cells by measuring red fluorescence intensity pretreated with compound for 10 mins and measured after 72 hrs in presence of 400 to 700 nm […] LED light by calcein-AM/PI staining based fluorescence analysis; assay type: functional, cell-based; conditions: time 4330.0 min
MDA-MB-453 [10] = assay: Induction of apoptosis in human MDA-MB-453 cells assessed as increase in BAX/Bcl-2 ratio at 0.5 uM preincubated for 24 hrs followed by irradiation with 400 to 700 nm 100 mW/cm2 LED light for 10 min by Western blot analysis; assay type: functional, cell-based; conditions: time 1450.0 min
MDA-MB-453 [11] = assay: Induction of intracellular ROS generation in human MDA-MB-453 cells assessed as increase in green fluorescence signal at 0.5 uM pretreated for 6 hrs followed by irradiation with 400 to 700 nm 100 mW/cm2 LED light for 10 min by DCFH2-DA staining based flow cytometry analysis; assay type: functional, cell-based; conditions: time 370.0 min
[12] = Photocytotoxicity against human Lapatinib-resistant MDA-MB-453 assessed as reduction in cell viability incubated for 72 hrs in presence of LED light irradiation of 100 mW/cm2 at 400 to 700 nm by CCK-8 assay; assay type: functional, cell-based; conditions: Lapatinib-resistant MDA-MB-453, light or radiation study
[13] = molecular target: T1, ErbB-2/ErbB-3 heterodimer; assay: Induction of HER2/HER3 degradation in human MDA-MB-453 cells assessed as decrease in HER2/HER3 heterodimer preincubated for 24 hrs followed by irradiation with 400 to 700 nm 100 mW/cm2 LED light for 10 min by Co-Immunoprecipitation Analysis; assay type: cell-based; conditions: time 1450.0 min
MDA-MB-453 [14] = assay: Photocytotoxicity against human MDA-MB-453 cells cultured as 3D spheroids assessed as reduction in diameter of tumor spheroid size at 0.5 to 10 uM incubated for 72 hrs by bright-field microscopic analysis; assay type: functional, cell-based; conditions: dose 0.5-10 µM
[15] = molecular target: Serine/threonine-protein kinase AKT (Homo sapiens) (UniProt P31751+Q9Y243+P31749); assay: Inhibition of AKT phosphorylation in human MDA-MB-453 cells at 0.5 uM preincubated for 24 hrs followed by irradiation with 400 to 700 nm 100 mW/cm2 LED light for 10 min by Western blot analysis; assay type: cell-based; conditions: time 1450.0 min
[16] = molecular target: T1, ErbB-2/ErbB-3 heterodimer; assay: Induction of HER2/HER3 degradation in human MDA-MB-453 cells assessed as HER3 degradation preincubated for 24 hrs followed by irradiation with 400 to 700 nm 100 mW/cm2 LED light for 10 min by Western blot analysis; assay type: cell-based
[17] = molecular target: Mitogen-activated protein kinase; ERK1/ERK2 (Homo sapiens) (UniProt P27361+P28482); assay: Inhibition of Erk1/2 phosphorylation in human MDA-MB-453 cells at 0.5 uM preincubated for 24 hrs followed by irradiation with 400 to 700 nm 100 mW/cm2 LED light for 10 min by Western blot analysis; assay type: cell-based; conditions: time 1450.0 min
Chain of Mitogen-activated protein kinase; ERK1/ERK2 (Homo sapiens) (P27361 whole entry, looked up): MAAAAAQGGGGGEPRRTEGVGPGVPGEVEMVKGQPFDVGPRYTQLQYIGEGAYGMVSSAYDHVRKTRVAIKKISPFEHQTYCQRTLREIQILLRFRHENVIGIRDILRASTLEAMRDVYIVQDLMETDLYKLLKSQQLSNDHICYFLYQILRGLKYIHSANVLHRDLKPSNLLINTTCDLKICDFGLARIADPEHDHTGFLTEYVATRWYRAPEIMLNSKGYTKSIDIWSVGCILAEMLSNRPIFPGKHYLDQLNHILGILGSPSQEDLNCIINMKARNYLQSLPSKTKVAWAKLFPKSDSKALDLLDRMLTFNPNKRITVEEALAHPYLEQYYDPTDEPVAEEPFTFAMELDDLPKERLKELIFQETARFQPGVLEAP
Chain of Mitogen-activated protein kinase; ERK1/ERK2 (Homo sapiens) (P28482 whole entry, looked up): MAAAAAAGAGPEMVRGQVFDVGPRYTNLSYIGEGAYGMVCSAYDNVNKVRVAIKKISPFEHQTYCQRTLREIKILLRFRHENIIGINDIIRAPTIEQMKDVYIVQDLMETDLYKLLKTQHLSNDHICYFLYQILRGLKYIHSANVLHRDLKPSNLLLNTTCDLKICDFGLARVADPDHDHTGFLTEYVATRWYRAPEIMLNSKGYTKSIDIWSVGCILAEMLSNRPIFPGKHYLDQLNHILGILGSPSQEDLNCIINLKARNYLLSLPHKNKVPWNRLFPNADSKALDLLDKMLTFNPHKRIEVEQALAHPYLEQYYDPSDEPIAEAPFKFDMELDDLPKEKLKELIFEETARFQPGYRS

[18] = molecular target: T1, ErbB-2/ErbB-3 heterodimer; assay: Induction of HER2/HER3 degradation in human MDA-MB-453 cells assessed as increase in HER2/HER3 heterodimer incubated for 24 hrs by Co-immunoprecipitation analysis; assay type: cell-based
MDA-MB-453 [19] = assay: Photocytotoxicity against human MDA-MB-453 cells cultured as 3D spheroids assessed as reduction in diameter of tumor spheroid size at 0.5 to 10 uM pretreated with compound for 10 mins and measured after 72 hrs in presence of 400 to 700 nm 100 mW/cm2 LED light by bright-field microscopic analysis; assay type: functional, cell-based; conditions: dose 0.5-10 µM, time 4330.0 min
MDA-MB-453 [20] = assay: Photocytotoxicity against human MDA-MB-453 cells cultured as 3D spheroids assessed as reduction in cell viability pretreated for 10 mins and measured after 72 hrs in presence of 400 to 700 nm 100 mW/cm2 LED light by CCK-8 assay; assay type: functional, cell-based
MDA-MB-453 [21] = assay: Induction of intracellular ROS generation in human MDA-MB-453 cells assessed as increase in green fluorescence signal at […] pretreated for 6 hrs followed by irradiation with 400 to 700 nm 100 mW/cm2 LED light for 10 min by DCFH2-DA staining based flow cytometry analysis; assay type: functional, cell-based; conditions: time 370.0 min

Question: With `CS(=O)(=O)CCNCc1ccc(-c2ccc3ncnc(Nc4ccc(OCc5cccc(F)c5)c(Cl)c4)c3c2)o1` [LAPATINIB] as the compound, how does the IC50 (MDA-MB-453 [1]) read?
Answer: The IC50 was > 20000 nM.

Question: And the IC50 [2]?
Answer: The IC50 was > 5000 nM.

Question: Which IC50 [3] does the source give for `CC[n+]1c(/C=C/c2ccc(-c3ccc4ncnc(Nc5ccc(OCc6cccc(F)c6)c(Cl)c5)c4c3)s2)sc2ccccc21` here?
Answer: Its IC50 is 585 nM.

Question: And the Activity (MDA-MB-453 [4])?
Answer: The Activity was “inactive”.

Question: And the IC50 (MDA-MB-453 [1])?
Answer: The IC50 was > 20000 nM.

Question: And the DC50 [5]?
Answer: Its DC50 is 520 nM.

Question: And the Activity ([5]; time 1450.0 min)?
Answer: Its Activity is “Dose-Dependent Effect”.

Question: What about the IC50 [6] of the same compound?
Answer: Its IC50 is 105 nM.

Question: What about the Activity (MDA-MB-453 [7]) of the same compound?
Answer: The Activity was “Active”.

Question: And the Activity (MDA-MB-453 [8])?
Answer: Its Activity is “Active”.

Question: What about the Activity (MDA-MB-453 [9]) of the same compound?
Answer: The Activity was “Active”.

Question: What about the Activity (MDA-MB-453 [10]) of the same compound?
Answer: The Activity was “Active”.

Question: What about the Activity (MDA-MB-453 [11]) of the same compound?
Answer: Its Activity is “Active”.

Question: And the IC50 [12]?
Answer: The IC50 was 226 nM.

Question: What about the Activity [13] of the same compound?
Answer: The Activity was “Active”.

Question: And the Activity (MDA-MB-453 [14])?
Answer: Its Activity is “inactive”.

Question: What about the inhibition [15] of the same compound?
Answer: The inhibition was “Active”.

Question: And the DC50 [16]?
Answer: Its DC50 is 584 nM.

Question: What about the inhibition [17] of the same compound?
Answer: Its inhibition is “Active”.

Question: What about the Activity [18] of the same compound?
Answer: The Activity was “inactive”.

Question: And the Activity (MDA-MB-453 [19])?
Answer: Its Activity is “Active”.

Question: And the IC50 (MDA-MB-453 [20])?
Answer: Its IC50 is 2130 nM.

Question: Which Activity (MDA-MB-453 [21]) does the source give for `O=S(=O)(O)c1cc(O)c(O)c(S(=O)(=O)O)c1` here?
Answer: The Activity was “Active”.

Question: With `CC[n+]1c(/C=C/c2ccc(-c3ccc4ncnc(Nc5ccc(OCc6cccc(F)c6)c(Cl)c5)c4c3)o2)sc2ccccc21` as the compound, how does the IC50 [6] read?
Answer: The IC50 was 50 nM.

Question: What about the IC50 [12] of the same compound?
Answer: Its IC50 is 1560 nM.
